# Experiments:
# [1] = test system: AECO063 (ATCC25922 bearing an acrAB mutation); experiment: microbe, parasite or virus in culture; format: cell-based, E. coli; conditions: for MIC: Escherichia coli, ATCC25922, read-out: MIC AECO063
# Summary of the method: (§1)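 CLSI-guided microdilution: bacteria passaged overnight at 35° C. on Mueller-Hinton agar, tested in cation-adjusted broth at a final 3×10^5–7×10^5 CFU/mL across 2-fold drug dilutions, read after 18-24 h at 35° C.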
# [2] = test system: ASAU001 (laboratory strain of S. aureus, ATCC29213); experiment: MIC broth microdilution, ASAU001; format: cell-based; conditions: for MIC: Staphylococcus aureus, ATCC29213, read-out: MIC ASAU001
# Summary of the method: as §1
# [3] = test system: AABA1060 (clinical isolate of Acinetobacter baumannii); experiment: MIC broth microdilution, AABA1060; format: cell-based; conditions: for MIC: Acinetobacter baumannii, read-out: MIC AABA1060
# Summary of the method: as §1
# AECO001 HSA AGP = experiment: MIC broth microdilution, AECO001 HSA AGP; format: cell-based, E. coli; conditions: for MIC: Escherichia coli
# Summary of the method: as §1
# [4] = test system: APAE006 in the presence of 8 micrograms per milliliter of polymyxin B nonapeptide; format: cell-based, P. aeruginosa; conditions: in the presence of 8 micrograms per milliliter of polymyxin B nonapeptide
# Summary of the method: (§2)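 Strains were grown overnight at 35° C. on Mueller-Hinton agar, suspended to 0.5 McFarland and diluted to a final 3×10^5–7×10^5 CFU/mL. They were then exposed to 2-fold serial drug dilutions in cation-adjusted Mueller-Hinton broth and incubated 18-24 hours at 35° C.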
# AECO001 (ATCC25922) = experiment: MIC broth microdilution, AECO001; format: cell-based, E. coli; conditions: for MIC: Escherichia coli, ATCC25922, read-out: MIC AECO001
# Summary of the method: as §1
# APAE001 (ATCC27853) = experiment: MIC broth microdilution, APAE001; format: cell-based, P. aeruginosa; conditions: for MIC: Pseudomonas aeruginosa, ATCC27853, read-out: MIC APAE001, APAE001 is ATCC27853
# Summary of the method: as §1
# [5] = test system: APAE006 (strain of P. aeruginosa in which all efflux pumps are inactivated); experiment: microbe, parasite or virus in culture; format: cell-based; conditions: for MIC: Pseudomonas aeruginosa, read-out: MIC APAE006, P. aeruginosa, all efflux pumps inactivated
# Summary of the method: as §2
SMILES,MIC AECO063 ([1]; ATCC25922 bearing an acrAB mutation),MIC ASAU001 ([2]; S. aureus ATCC29213),MIC AABA1060 ([3]; clinical isolate of Acinetobacter baumannii),MIC AECO001 HSA AGP (AECO001 HSA AGP),MIC APAE006 + PMBN [4],MIC AECO001 (AECO001 (ATCC25922); AECO001 is ATCC25922),MIC APAE001 (APAE001 (ATCC27853); APAE001 is ATCC27853),"MIC APAE006 ([5]; P. aeruginosa, all efflux pumps inactivated)",MIC [1] [µg/mL],MIC [2] [µg/mL],MIC [3] [µg/mL],MIC (AECO001 HSA AGP) [µg/mL],MIC (AECO001 (ATCC25922)) [µg/mL],MIC (APAE001 (ATCC27853)) [µg/mL],MIC [5] [µg/mL]
C[C@@H](N)[C@H](NC(=O)c1ccc(/C=C/C#Cc2ccc(CN3CCS(=O)(=O)CC3)cc2)cc1)C(=O)NO [Example 113-8],A (MIC's of 2.0 μg/mL or less = A),C (MIC's of greater than 16.0 μg/mL to 64.0 μg/mL = C),A (MIC's of 2.0 μg/mL or less = A),B (MIC's of greater than 2.0 μg/mL to 16.0 μg/mL = B),A (MIC's of 2.0 μg/mL or less = A),A (MIC's of 2.0 μg/mL or less = A),B (MIC's of greater than 2.0 μg/mL to 16.0 μg/mL = B),A (MIC's of 2.0 μg/mL or less = A),,,,,,,
COCc1ccc(C#C/C=C/c2ccc(C(=O)N[C@H](C(=O)NO)[C@@H](C)N)cc2)cc1 [Example 113-9],,,,,A (MIC's of 2.0 μg/mL or less = A),,,,< 2,16 to 64,< 2,2 to 16,< 2,< 2,< 2
CCOCc1ccc(C#C/C=C/c2ccc(C(=O)N[C@H](C(=O)NO)[C@@H](C)N)cc2)cc1 [Example 113-10],,,,,A (MIC's of 2.0 μg/mL or less = A),,,,< 2,16 to 64,2 to 16,2 to 16,< 2,2 to 16,< 2
O=C(CNC1CC1)NC[C@H](NC(=O)c1ccc(/C=C/C#Cc2ccc(CO)cc2)cc1)C(=O)NO [Example 113-11],,,,,A (MIC's of 2.0 μg/mL or less = A),,,,< 2,> 64,16 to 64,16 to 64,< 2,2 to 16,< 2
"C[C@@H](N)[C@H](NC(=O)c1ccc(/C=C/C#Cc2ccccc2)cc1)C(=O)NO [Example 114-1, N-((1S,2R)-2-Amino-1-hydroxycarbamoyl-propyl)-4-((E)-4-phenyl-but-1-en-3-ynyl)-benzamide]",,,,,A (MIC's of 2.0 μg/mL or less = A),,,,< 2,2 to 16,< 2,2 to 16,< 2,< 2,< 2
C[C@@H](N)[C@H](NC(=O)c1ccc(/C=C/C#Cc2ccc(F)cc2)cc1)C(=O)NO [Example 114-2],,,,,A (MIC's of 2.0 μg/mL or less = A),,,,< 2,16 to 64,2 to 16,2 to 16,< 2,2 to 16,< 2
C[C@@H](N)[C@H](NC(=O)c1ccc(/C=C/C#Cc2ccccc2F)cc1)C(=O)NO [Example 114-3],,,,,A (MIC's of 2.0 μg/mL or less = A),,,,< 2,16 to 64,< 2,2 to 16,< 2,< 2,< 2
C[C@@H](N)[C@H](NC(=O)c1ccc(/C=C/C#Cc2cccc(Cl)c2)cc1)C(=O)NO [Example 114-4],,,,,A (MIC's of 2.0 μg/mL or less = A),,,,< 2,2 to 16,2 to 16,2 to 16,< 2,2 to 16,< 2
C[C@@H](N)[C@H](NC(=O)c1ccc(/C=C/C#Cc2ccccc2Cl)cc1)C(=O)NO [Example 114-5],,,,,A (MIC's of 2.0 μg/mL or less = A),,,,< 2,2 to 16,< 2,2 to 16,< 2,2 to 16,< 2
C[C@@H](N)[C@H](NC(=O)c1ccc(/C=C/C#Cc2ccc(C(F)(F)F)cc2)cc1)C(=O)NO [Example 114-6],,,,,A (MIC's of 2.0 μg/mL or less = A),,,,< 2,2 to 16,2 to 16,2 to 16,< 2,2 to 16,2 to 16
C[C@@H](N)[C@H](NC(=O)c1ccc(/C=C/C#Cc2ccc(OC(F)(F)F)cc2)cc1)C(=O)NO [Example 114-7],,,,,A (MIC's of 2.0 μg/mL or less = A),,,,< 2,2 to 16,2 to 16,2 to 16,2 to 16,2 to 16,2 to 16

# From patent US9617256B2 (priority 2007, dated 2017)
